Experimental data taken from patent publication US9034826B2, “Use of epidermal growth factor for the morphofunctional restoration of peripheral nerves in diabetic neuropathy” (Centro de Ingenieria Genetica y Biotecnologia, priority 2006, dated 2015).

Experiments:
Assay type in all cases: in vivo, Wistar rats
sciatic nerve = assay: Histomorphometric study on fragments of the sciatic nerve, reversion study (Example 2); conditions: established diabetic neuropathy, 100 μg EGF in 1 ml i.p. 3 days a week, evaluation after 30 days
Method: (§1) The aim of this study was to evaluate the neurorestoration effect of the pharmaceutical composition. Male Wistar rats between 200-250 grams of body is weight received a subcutaneous injection of streptozotocin at 75 mg/kg in sodium citrate buffer, and were allowed to evolve until 120 days after disease induction. All rats used in this experiment had shown sustained glucose levels above 15 mmol/L. Animals were handled and fed as previously described. A concurrent control group was set, where animals received saline instead of streptozotocin. […] After this period an electrophysiological characterization of all rats were done and animals were split in two random treatment groups:
(§2) Group II. Animals received the pharmaceutical composition with 100 μg of EGF in 1 ml, 3 days a week, by intraperitoneal route.
(§3) One month after conclusion of the treatment with either EGF containing composition or saline, and […] after disease induction, animals were sacrificed by an overdose of anesthesia and perfused with saline buffer pH 7.4. A total of ten animals per experimental group were included for histomorphometric studies, and an equivalent number of rats were used for biochemical determinations. In both systems the sciatic nerves from both limbs were dissected. The procedures were similar to those described for the neuropathic damage prevention assay. Samples taken for histological and o histomorphometric studies were stained with hematoxilin/eosin and toluidine blue. At least five fragments of the same nerve were quantitatively studied using MADIP program. The fragments were included in OCT blocks, post-fixed with glutaraldehyde, and sliced horizontal and transversally. The histological indicators assessed have been described above as well as the procedures used for the processing and evaluation: • Total number of blood vessels (in epineural/perineural) in 10 microscopic fields using 10× as constant magnification in longitudinal cuts of the nerve. • Percentage of demyelinated fibers. Evaluated by averaging the values per microscopic field (×20, at least five fields). • Percentage of myelin or non-myelin fibers with lesions (dilated or distorted) per microscopic field (×20, at least five fields). • Percentage of endoneurial collagenization (moderated: 25 to 50%; severe: more than 50% of the endoneurial area in transversal slices, and at least three different sections.

Lipoprotein Lipase (LPL) = assay: Lipoprotein lipase (LPL) enzymatic activity in sciatic nerve fragments, reversion study (Example 2); conditions: established diabetic neuropathy, 100 μg EGF in 1 ml i.p. 3 days a week for one month
Method: Fragments of the nerve from each animal were incubated together with 3 μg/ml heparin in Krebs-Ringer buffer at 37° C. for 50 minutes. Aliquots from these samples were then incubated in the presence of [^14C] triolein-phosphatidylcholine. ^14C labeled fatty acids were quantified by the classic methods. LPL activity was expressed in nanomoles of released fatty acids (RFA) per minute and gram of tissue.
as §1, §2
The aim of this study was to compare the LPL enzymatic activity after one month of treatment with EGF containing composition, as compared to saline treated diabetic animals. […]

diabetic rats = assay: Sensory conduction velocity, reversion study (Example 2); conditions: established diabetic neuropathy, 100 μg EGF in 1 ml i.p. 3 days a week for one month, day 120 after induction of diabetes
Method: Distal supra-maximal stimulation in the sciatic-tibial route using bipolar electrodes is was used to study motor conduction. Determination of the conduction velocity in the sensory routes was carried out by applying a stimulus at a proximal point in the tail and measure it 3 cm away.
as §1, §2
To check the effect of the pharmaceutical composition on the restoration of sensory and motor fibers the conduction velocity of an electric impulse was measured at day 120 after induction of diabetes, after treating the animals with the pharmaceutical composition or saline. […]

[1] = tested on: Redox state in fragments of sciatic nerve; assay: Redox profile in fragments of sciatic nerve, reversion study (Example 2); conditions: established diabetic neuropathy, 100 μg EGF in 1 ml i.p. 3 days a week for one month
Method: as §1, §2, §3
Ten animals from each group were used for the biochemical determinations in the is fragments of the sciatic nerve collected. The following biochemical parameters were studied:
Redox Profile: • Total Superoxide Dismutase (tSOD) enzymatic activity total. • Catalase enzymatic activity. • Intra-axonal accumulation of total hydroperoxides (THP). • Intra-axonal accumulation of malonyldialdehyde (MDA).

Substance: EGF containing pharmaceutical composition: Composition with human recombinant EGF: 75 μg/ml in Example 1, 100 μg in 1 ml in Example 2, given intraperitoneally
- % of collagenized area (sciatic nerve): 46.3 ± 9.5%
- % of demyelinated fibers (sciatic nerve): 50.6 ± 12.3%
- % of fibers with lesions (sciatic nerve): 52.6 ± 8.3%
- No. of blood vessels (sciatic nerve; 10 microscopic fields): 86.5 ± 14.6
- LPL activity in the sciatic nerve (Lipoprotein Lipase (LPL)): 6.29 ± 1.67 nmoles AGL/min/g
- Velocity (sensitive conduction velocity, SCV) (diabetic rats): 59.42 ± 3.35 m/s
- Catalase activity [1]: 86.1 ± 6.5 units per milligram of protein per minute
- MDA (malonyldialdehyde) [1]: 0.1 ± 0.03 nmol/mg of protein
- THP (total hydroperoxides) [1]: 55.8 ± 12.7 nmol/mg of protein
- tSOD (total Superoxide Dismutase activity) [1]: 1988.4 ± 101.6 units per milligram of protein per minute
